Data from PubChem BioAssay AID624254 (Broad Institute, 2012).
Calls of active or inactive are those of the source. No rule for the calls is given here.

Test: Luciferase light induction in v cholerae bh1651, agonist dose response, confirmatory (AID 624254)
Conditions: V. cholerae BH1651 luxOD47E, luciferase light induction, 6 h; at 50 µM (top of the series)

SMILES | activation (light increase)
CCCS(=O)(=O)N1CCCC(C(=O)NCCCN(C)Cc2ccccc2)C1 (configuration not stated) | inactive
COc1ccc2nc(SC(C)C(=O)NCC(=O)Nc3ccc(F)c(F)c3F)[nH]c2c1 (configuration not stated) | inactive
COc1cc(NC(=O)CN2C(=O)NC(c3ccccc3)(c3ccccc3)C2=O)cc(OC)c1 | inactive
CCOc1ccc2nc(SCC(=O)NC(=O)NCc3ccco3)[nH]c2c1 | inactive
O=S(=O)(Nc1ccccn1)c1ccccc1 | inactive
COc1ccc(NC(=O)COc2cccc3c2CCNC3=O)cc1 | inactive
CCOC(=O)C1CCCN(Cc2cccc(Cl)c2)C1 (configuration not stated) | inactive
COc1ccc2c(c1)CCC(C)N2S(=O)(=O)c1ccc(C2CNC(=O)C2)cc1 (configuration not stated) | inactive
Cc1cc(N2CCC(C)CC2)nc2ccc(N3C(=O)CCC3=O)cc12 | inactive
CC12CCC(=O)N1C(C(=O)NNC(=O)COc1ccc(Br)cc1)CS2 (configuration not stated) | inactive
CCc1ccc2c(c1)c1nnc(NN)nc1n2CC | inactive
COc1cc(C(=O)Nc2ccc(NC(=O)C(C)C)nc2)cc(OC)c1OC | inactive
O=C(Cc1ccc2c(c1)CCCC2)Nc1ccccc1Cl | inactive
COCCCNC(=O)c1ccc2c(=O)n(C3CCCC3)c(=S)[nH]c2c1 | inactive
O=C(c1ccc2c(c1)OCO2)N(Cc1ccco1)C1(C(=O)NC2CCCCC2)CCCCC1 | inactive
CCOC(=O)CC(=O)Nc1nnc(C(C)C)s1 | inactive
O=C(c1cc(-c2cccs2)nn1-c1ccccc1)N1CCN(S(=O)(=O)c2ccccc2)CC1 | inactive
COc1ccc(N(CC(=O)NC2CCCCC2)C(=O)CNC(=O)c2ccco2)c(OC)c1 | inactive
COC(=O)c1ccc(-c2nc3cc(Cl)c(N)cc3s2)cc1 | inactive
Cc1ccc2nc(SCc3nnc(-c4ccccc4Br)o3)[nH]c2c1 | inactive
O=C(c1cc2cc(Cl)ccc2oc1=O)N1CCCC1 | inactive
COc1ccc(-c2cc(CCCC(=O)NCCc3cc(OC)ccc3OC)no2)cc1 | inactive
Cc1onc(-c2ccccc2)c1C(=O)n1cccn1 | inactive
CC(=O)Nc1nonc1NC(C)=O | inactive
Cc1noc(C)c1NC(=O)Nc1cccc2c1O[C@H](CN(C)S(=O)(=O)c1cccs1)[C@H](C)CN([C@@H](C)CO)C2=O | inactive

SMILES | activation (light increase)
COc1cccc(CN(C)C(=O)CSC(C)C(=O)Nc2cc(C)on2)c1OC (configuration not stated) | inactive
Cc1cccc(-c2noc(-c3ccccc3C(=O)NCC3CCCO3)n2)c1 (configuration not stated) | inactive
c1ccc(-c2ccc(CN3Cc4ccccc4-n4nncc4C3)cc2)cc1 | inactive
Cc1ccc(C(=O)OCC(=O)NCCNC(=O)COC(=O)c2ccc(C)s2)s1 | inactive
CC1(C)Nc2ccc(O)cc2-c2c1ssc2=S | inactive
CCCS(=O)(=O)N1CCCC(C(=O)NCCCN(C)c2ccccc2)C1 (configuration not stated) | inactive
Cc1ccc(OCCNC(=O)c2ccc(C)o2)cc1 | inactive
O=C(COC(=O)[C@H](Cc1c[nH]c2ccccc12)NC(=O)c1ccc(Cl)cc1)Nc1ccc2c(c1)OCO2 | inactive
Oc1ccc(-c2cn3c(n2)SCC3)cc1 | inactive
C[C@H]1CN([C@@H](C)CO)C(=O)c2cccc(NC(=O)C3CC3)c2O[C@@H]1CN(C)S(=O)(=O)c1cccs1 | inactive
CCCCN(Cc1nc2ccccc2c(=O)[nH]1)C(=O)CN1C(=O)NC2(CCCCC2)C1=O | inactive
CNC(=O)c1cc2cc(OC)ccc2n1CCN(Cc1ccccc1)Cc1ccccc1 | inactive
CCCCn1nnnc1NCc1ccc(N(CC)CC)cc1 | inactive
O=Cc1cc(OCc2ccccc2)ccc1B(O)O | inactive
CN(CC(=O)NCCN1CCOCC1)S(=O)(=O)c1ccc(Cl)cc1 | inactive
COCCn1nnnc1CN1CCC(NC(=O)Nc2cccc(OC)c2)CC1 | inactive
OCCn1c(SC2CCCCC2)nc2ccccc21 | inactive
CC1(C(=O)N2CCN(c3ccc([N+](=O)[O-])cc3)CC2)CC1(Cl)Cl (configuration not stated) | inactive
CCc1ccc(S(=O)(=O)Nc2ccc(Br)cn2)cc1 | inactive
CC(=O)c1ccc(S(=O)(=O)Nc2cccc(-c3ccc4nncn4n3)c2)cc1 | inactive
COc1ccc(C(=O)N2CCC(C(=O)c3ccc(F)cc3)CC2)cc1 | inactive
COCCN(C(=O)C1CCC1)c1nnc(-c2cccnc2)s1 | inactive
CC1(NC(=O)C23CC4CC(CC(C4)C2)C3)CCS(=O)(=O)C1 (configuration not stated) | inactive
COC(=O)c1cc(Br)ccc1OC(=O)c1cccnc1 | inactive
O=c1c2cc(Br)ccc2nc(-c2cccc(C(F)(F)F)c2)n1O | inactive

SMILES | activation (light increase)
O=C(NCc1ccc2c(c1)OCO2)C1CCCN1C(=O)Nc1cccc(Cl)c1 (configuration not stated) | inactive
Cc1noc(C)c1NC(=O)Nc1cccc2c1O[C@H](CN(C)S(=O)(=O)c1ccccc1)[C@@H](C)CN([C@H](C)CO)C2=O | inactive
COCc1nnc(NS(=O)(=O)c2ccc(Br)cc2)s1 | inactive
CCCCn1c(=O)[nH]c(=O)c2c1nc(COc1ccc(C#N)cc1)n2CCC | inactive
COc1ccccc1CNC(=O)COC(=O)c1n[nH]c2ccccc12 | inactive
CCCn1nnnc1NCc1ccc(C(C)C)cc1 | inactive
CCCOC(=O)c1ccc(NC(=O)C2CCCO2)cc1 (configuration not stated) | inactive
Cc1noc(C)c1NC(=O)Nc1cccc2c1O[C@H](CN(C)S(=O)(=O)c1cccs1)[C@@H](C)CN([C@H](C)CO)C2=O | inactive
O=S(=O)(Nc1ccc(-c2csc(-c3ccccc3)n2)cc1)c1ccc(F)cc1 | inactive
COc1ccc(Cl)cc1NC(=O)COC(=O)c1ccc(C)o1 | inactive
CCc1ccc(-c2ccc(C(=O)O)n2C)cc1 | inactive
CCNC(=O)OCc1cn(-c2ccccc2)nn1 | inactive
COc1ccc2[nH]c(=O)c(CNc3ccc(C)c(C)c3)cc2c1 | inactive
O=C(Nc1cccc(-c2ccc(N3CCOCC3)nn2)c1)c1ccccc1Cl | inactive
CC(C)CC(=O)N1CCN(Cc2ccccc2Br)CC1 | inactive
CC(C)NC(=O)c1ccc(-c2cccc(C(F)(F)F)c2)o1 | inactive
O=c1oc2c(CN3CCOCC3)c(O)c(Cl)cc2c2c1CCC2 | inactive
Cn1cccc1C(=O)OCc1cc(-c2ccco2)on1 | inactive
Cc1cccc(-c2noc(CN(C(=O)C34CC5CC(CC(C5)C3)C4)C(C)C)n2)c1 | inactive
Cc1ccc(C2(C)NC(=O)N(CC(=O)NCCC3=CCCCC3)C2=O)cc1 (configuration not stated) | inactive
Cc1ccc(C(=O)OCC(=O)NC2CCCC2)cc1C | inactive
Fc1ccc(NCc2cn3ccccc3n2)cc1 | inactive
Cc1ccc(C(=O)N(C)CC(=O)Nc2ccc(N3CCOCC3)cc2)s1 | inactive
COc1ccc(C(=O)NC2CCSC2=O)cc1 (configuration not stated) | inactive
CN(C)C(=O)c1ccccc1NS(=O)(=O)c1cn(C)cn1 | inactive

SMILES | activation (light increase)
Cc1ccc(CN2C(=O)CCC2C(=O)NCCN(CC(C)C)CC(C)C)cc1 (configuration not stated) | inactive
CC(=O)C(CC(=O)N1CCCc2ccccc21)C(=O)Nc1ccc(F)cc1 (configuration not stated) | inactive
CCOC(=O)c1cnc(SCC(=O)OCC(=O)NC2CCS(=O)(=O)C2)nc1N (configuration not stated) | inactive
CCC(=O)c1coc2ccc(O)cc12 | inactive
COc1ccc(OCc2nnc3n2N=C(c2ccc(OC)cc2)CS3)cc1 | inactive
O=C(O)c1cc(CN2CCOCC2)oc1-c1ccccc1 | inactive
CN(C)S(=O)(=O)c1ccc(NC(=S)NC(=O)Cc2ccccc2)cc1 | inactive
CS(=O)(=O)NNC(=O)c1sccc1OCc1ncc(C(F)(F)F)cc1Cl | inactive
COc1ccc(Cc2nn[nH]n2)cc1 | inactive
CCOc1ccc(Nc2ccc3nonc3c2[N+](=O)[O-])cc1 | inactive
CCOC(=O)c1ccccc1NC(=O)COC(=O)C1=COCCO1 | inactive
C[C@@H]1CN([C@H](C)CO)C(=O)c2cccc(NC(=O)Nc3ccc4c(c3)OCO4)c2O[C@@H]1CN(C)S(=O)(=O)c1ccccc1 | inactive
COc1ccc(OCc2cn3c(C)cc(C)nc3n2)cc1 | inactive
Cc1onc(-c2ccccc2)c1C(=O)N1CCOCC1 | inactive
CC(=O)Nc1ccccc1NS(=O)(=O)c1cn(C)cn1 | inactive
C[C@H](CO)N1C[C@H](C)[C@@H](CN(C)S(=O)(=O)c2cccs2)Oc2c(NC(=O)C3CC3)cccc2C1=O | inactive
Cc1ccccc1C(=O)Nc1ccc(-c2nc3ccc(C(=O)c4ccccc4)cc3[nH]2)cc1 | inactive
Cn1cnc(S(=O)(=O)Nc2ccc(OC(C)(C)C)cc2)c1 | inactive
COc1ccc(S(=O)(=O)N(C)C[C@H]2Oc3c(NC(=O)Nc4ccc5c(c4)OCO5)cccc3C(=O)N([C@H](C)CO)C[C@@H]2C)cc1 | inactive
CC(=O)c1cc2c(cc1NS(=O)(=O)c1ccccc1)OCO2 | inactive
COc1cc(SC)ccc1C(=O)OCC(=O)NCC(C)C | inactive
Cc1cccc(NC(=O)CS(=O)(=O)c2cn(C)c3ccccc23)c1C | inactive
